Counter-ions that a name gives are not always drawn. Each block holds one compound with its values, some of them ahead of it.
Tests used:
[1] = tested on: SMN2 minigene mRNA (SMN2-A minigene) in HEK293H cells; assay: SMN2 minigene mRNA splicing RT-qPCR assay in cultured cells; assay type: cell-based, human; conditions: Homo sapiens, HEK293-H; concentration increasing full length SMN2 mRNA 1.5-fold relative to vehicle-treated cells; HEK293H cells with SMN2-A minigene, 24 hours, 7-point concentration data; read-out: EC1.5x for production of full length SMN2 mRNA
Outline: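 Read-out: minigene-specific full-length (exon 7-included) SMN2 mRNA by one-step multiplex RT-qPCR, normalized to GAPDH and divided by vehicle-treated level. Stable SMN2-A minigene HEK293H cells, 24 h compound exposure, 7 concentrations in duplicate. EC1.5× = concentration raising FL mRNA 1.5-fold.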

[2] = tested on: Smn protein in SMA patient fibroblast cells (GM03813); assay: Smn protein assay in cultured cells (SMN HTRF); assay type: cell-based, human; conditions: SMA patient fibroblast cells, 48 hours; for maximum fold (Fold) increase of Smn protein: 7-point concentration data, fold relative to vehicle control; for EC1.5x for Smn protein expression: 7-point concentration curve, SMN HTRF, concentration producing 1.5 times Smn protein vs DMSO vehicle control
Outline: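 Read-out: HTRF 665/620 nm ratio, blank-subtracted as ΔF, then expressed as fold over DMSO vehicle. Fibroblasts from SMA patients were exposed to compounds for 48 h (7 points, 3.16-fold steps, triplicates). Values are EC1.5× and maximum fold Smn increase.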

- melting point: 188 to 192 °C
SMILES: COc1ccc(-c2cc(=O)n3cc(N4CCC(N(C)C)CC4)ccc3c2)cc1F (as salt: acetate) [Compound 203, 7-[4-(dimethylamino)piperidin-1-yl]-2-(3-fluoro-4-methoxyphenyl)-4H-quinolizin-4-one]

- melting point: 290 °C (dec.)
SMILES: O=c1cc(-c2cc(F)c(O)c(F)c2)nc2ccc(N3CCNCC3)cn12 (as salt: hydrochloride) [Compound 71, 2-(3,5-difluoro-4-hydroxyphenyl)-7-(piperazin-1-yl)-4H-pyrido[1,2-a]pyrimidin-4-one]

- melting point: 178 to 182 °C
SMILES: COc1ccc(-c2cc(=O)n3cc(N4CCN(C)CC4)ccc3n2)cc1 [Compound 2, 2-(4-methoxyphenyl)-7-(4-methylpiperazin-1-yl)-4H-pyrido[1,2-a]pyrimidin-4-one]
- EC (1.5-fold increase) [1]: 1 to 3 µM
- maximum fold (Fold) increase of Smn protein [2]: ** (a fold increase between >1.2 and ≤1.35 is indicated by two stars (**))

- melting point: 152 to 154 °C
SMILES: COc1ccc(-c2cc(=O)n3cc(N4CCN[C@H](C)C4)ccc3n2)cc1 [Compound 3, 2-(4-methoxyphenyl)-7-[(3R)-3-methylpiperazin-1-yl]-4H-pyrido[1,2-a]pyrimidin-4-one]
- EC (1.5-fold increase) [1]: 0.3 to 1 µM
- EC1.5x for Smn protein expression [2]: ** (an EC1.5× between >1 μM and ≤3 μM is indicated by two stars (**))
- maximum fold (Fold) increase of Smn protein [2]: *** (a fold increase between >1.35 and ≤1.5 is indicated by three stars (***))

- melting point: 185 to 187 °C
SMILES: COc1ccc(-c2cc(=O)n3cc(N4C[C@@H](C)N[C@@H](C)C4)ccc3n2)cc1 [Compound 4, 7-[(3R,5S)-3,5-dimethylpiperazin-1-yl]-2-(4-methoxyphenyl)-4H-pyrido[1,2-a]pyrimidin-4-one]
- EC (1.5-fold increase) [1]: 1 to 3 µM
- maximum fold (Fold) increase of Smn protein [2]: * (A maximum fold increase of ≤1.2 is indicated by one star (*))

- melting point: 149 to 152 °C
SMILES: COc1ccc(-c2cc(=O)n3cc(N4CCCNCC4)ccc3n2)cc1 [Compound 5, 7-(1,4-diazepan-1-yl)-2-(4-methoxyphenyl)-4H-pyrido[1,2-a]pyrimidin-4-one]
- EC (1.5-fold increase) [1]: 3 to 30 µM
- maximum fold (Fold) increase of Smn protein [2]: * (A maximum fold increase of ≤1.2 is indicated by one star (*))

SMILES: CCc1nc(C)cn2nc(-c3cc(=O)n4cc(NCCN5CCOCC5)ccc4n3)cc12 [Compound 823, 2-(4-ethyl-6-methylpyrazolo[1,5-a]pyrazin-2-yl)-7-{[2-(morpholin-4-yl)ethyl]amino}-4H-pyrido[1,2-a]pyrimidin-4-one]
- EC (1.5-fold increase) [1]: 3 to 30 µM
- maximum fold (Fold) increase of Smn protein [2]: ** (a fold increase between >1.2 and ≤1.35 is indicated by two stars (**))

SMILES: CCc1nc(C)cn2nc(-c3cc(=O)n4cc(NCCN(C)C)ccc4n3)cc12 [Compound 824, 7-{[2-(dimethylamino)ethyl]amino}-2-(4-ethyl-6-methylpyrazolo[1,5-a]pyrazin-2-yl)-4H-pyrido[1,2-a]pyrimidin-4-one]
- EC (1.5-fold increase) [1]: 0.3 to 1 µM
- EC1.5x for Smn protein expression [2]: * (An EC1.5× for Smn protein expression between >3 μM and ≤10 μM is indicated by one star (*))
- maximum fold (Fold) increase of Smn protein [2]: **** (a fold increase between >1.5 and ≤1.65 is indicated by four stars (****))

SMILES: CCc1nc(C)cn2nc(-c3cc(=O)n4cc(N(C)CCN(C)C)ccc4n3)cc12 [Compound 825, 7-{[2-(dimethylamino)ethyl](methyl)amino}-2-(4-ethyl-6-methylpyrazolo[1,5-a]pyrazin-2-yl)-4H-pyrido[1,2-a]pyrimidin-4-one]
- EC (1.5-fold increase) [1]: 0.3 to 1 µM
- EC1.5x for Smn protein expression [2]: ** (an EC1.5× between >1 μM and ≤3 μM is indicated by two stars (**))
- maximum fold (Fold) increase of Smn protein [2]: ***** (a fold increase >1.65 is indicated by five stars (*****))

SMILES: CCc1nc(C)cn2nc(-c3cc(=O)n4cc(N(C)CCNC)ccc4n3)cc12 [Compound 826, 2-(4-ethyl-6-methylpyrazolo[1,5-a]pyrazin-2-yl)-7-{methyl[2-(methylamino)ethyl]amino}-4H-pyrido[1,2-a]pyrimidin-4-one]
- EC (1.5-fold increase) [1]: 0.1 to 0.3 µM
- EC1.5x for Smn protein expression [2]: ** (an EC1.5× between >1 μM and ≤3 μM is indicated by two stars (**))
- maximum fold (Fold) increase of Smn protein [2]: ***** (a fold increase >1.65 is indicated by five stars (*****))

SMILES: Cc1cn2cc(-c3cc(=O)n4cc(N5CC[C@@H](N(C)C)C5)ccc4n3)cc(C)c2n1 [Compound 827, 7-[(3R)-3-(dimethylamino)pyrrolidin-1-yl]-2-(2,8-dimethylimidazo[1,2-a]pyridin-6-yl)-4H-pyrido[1,2-a]pyrimidin-4-one]
- EC (1.5-fold increase) [1]: < 0.1 µM
- EC1.5x for Smn protein expression [2]: *** (an EC1.5× between >0.3 μM and ≤1 μM is indicated by three stars (***))
- maximum fold (Fold) increase of Smn protein [2]: ***** (a fold increase >1.65 is indicated by five stars (*****))

SMILES: Cc1cn2cc(-c3cc(=O)n4cc(N5CC[C@H](N(C)C)C5)ccc4n3)cc(C)c2n1 [Compound 828, 7-[(3S)-3-(dimethylamino)pyrrolidin-1-yl]-2-(2,8-dimethylimidazo[1,2-a]pyridin-6-yl)-4H-pyrido[1,2-a]pyrimidin-4-one]
- EC (1.5-fold increase) [1]: < 0.1 µM
- EC1.5x for Smn protein expression [2]: **** (an EC1.5x≤0.3 μM is indicated by four stars (****))
- maximum fold (Fold) increase of Smn protein [2]: ***** (a fold increase >1.65 is indicated by five stars (*****))

SMILES: CCc1nc(C)cn2nc(-c3cc(=O)n4cc(OCCN(C)C)cc(C)c4n3)cc12 [Compound 829, 7-[2-(dimethylamino)ethoxy]-2-(4-ethyl-6-methylpyrazolo[1,5-a]pyrazin-2-yl)-9-methyl-4H-pyrido[1,2-a]pyrimidin-4-one]
- EC (1.5-fold increase) [1]: 0.1 to 0.3 µM
- EC1.5x for Smn protein expression [2]: ** (an EC1.5× between >1 μM and ≤3 μM is indicated by two stars (**))
- maximum fold (Fold) increase of Smn protein [2]: ***** (a fold increase >1.65 is indicated by five stars (*****))

SMILES: CCc1nc(C)cn2nc(-c3cc(=O)n4cc(OCCN(C)C)ccc4n3)cc12 [Compound 830, 7-[2-(dimethylamino)ethoxy]-2-(4-ethyl-6-methylpyrazolo[1,5-a]pyrazin-2-yl)-4H-pyrido[1,2-a]pyrimidin-4-one]
- EC (1.5-fold increase) [1]: < 0.1 µM
- EC1.5x for Smn protein expression [2]: *** (an EC1.5× between >0.3 μM and ≤1 μM is indicated by three stars (***))
- maximum fold (Fold) increase of Smn protein [2]: ***** (a fold increase >1.65 is indicated by five stars (*****))

SMILES: CCc1nc(C)cn2nc(-c3cc(=O)n4cc(OCC5CCNCC5)ccc4n3)cc12 [Compound 831, 2-(4-ethyl-6-methylpyrazolo[1,5-a]pyrazin-2-yl)-7-(piperidin-4-ylmethoxy)-4H-pyrido[1,2-a]pyrimidin-4-one]
- EC (1.5-fold increase) [1]: 0.1 to 0.3 µM
- EC1.5x for Smn protein expression [2]: ** (an EC1.5× between >1 μM and ≤3 μM is indicated by two stars (**))
- maximum fold (Fold) increase of Smn protein [2]: **** (a fold increase between >1.5 and ≤1.65 is indicated by four stars (****))

SMILES: CCc1nc(C)cn2nc(-c3cc(=O)n4cc(OCCN5CCCCC5)ccc4n3)cc12 [Compound 832, 2-(4-ethyl-6-methylpyrazolo[1,5-a]pyrazin-2-yl)-7-[2-(piperidin-1-yl)ethoxy]-4H-pyrido[1,2-a]pyrimidin-4-one]
- EC (1.5-fold increase) [1]: 0.1 to 0.3 µM
- EC1.5x for Smn protein expression [2]: *** (an EC1.5× between >0.3 μM and ≤1 μM is indicated by three stars (***))
- maximum fold (Fold) increase of Smn protein [2]: ***** (a fold increase >1.65 is indicated by five stars (*****))

SMILES: CCc1nc(C)cn2nc(-c3cc(=O)n4cc(OCCCN5CCOCC5)ccc4n3)cc12 [Compound 833, 2-(4-ethyl-6-methylpyrazolo[1,5-a]pyrazin-2-yl)-7-[3-(morpholin-4-yl)propoxy]-4H-pyrido[1,2-a]pyrimidin-4-one]
- EC (1.5-fold increase) [1]: < 0.1 µM
- EC1.5x for Smn protein expression [2]: ** (an EC1.5× between >1 μM and ≤3 μM is indicated by two stars (**))
- maximum fold (Fold) increase of Smn protein [2]: ***** (a fold increase >1.65 is indicated by five stars (*****))

SMILES: CCc1nc(C)cn2nc(-c3cc(=O)n4cc(OCCCN(C)C)ccc4n3)cc12 [Compound 834, 7-[3-(dimethylamino)propoxy]-2-(4-ethyl-6-methylpyrazolo[1,5-a]pyrazin-2-yl)-4H-pyrido[1,2-a]pyrimidin-4-one]
- EC (1.5-fold increase) [1]: < 0.1 µM
- EC1.5x for Smn protein expression [2]: **** (an EC1.5x≤0.3 μM is indicated by four stars (****))
- maximum fold (Fold) increase of Smn protein [2]: ***** (a fold increase >1.65 is indicated by five stars (*****))

SMILES: Cc1cn2nc(-c3cc(=O)n4cc(N5C[C@H]6CN(C)C[C@H]6C5)ccc4n3)cc2c(C)n1 [Compound 835, 2-(4,6-dimethylpyrazolo[1,5-a]pyrazin-2-yl)-7-[(3aR,6aS)-5-methylhexahydropyrrolo[3,4-c]pyrrol-2(1H)-yl]-4H-pyrido[1,2-a]pyrimidin-4-one]
- EC (1.5-fold increase) [1]: < 0.1 µM
- EC1.5x for Smn protein expression [2]: **** (an EC1.5x≤0.3 μM is indicated by four stars (****))
- maximum fold (Fold) increase of Smn protein [2]: ***** (a fold increase >1.65 is indicated by five stars (*****))

SMILES: COc1ccc(-c2cc(=O)n3cc(C4=CCNCC4)cnc3n2)cc1OC [Cpd 353, 2-(3,4-dimethoxyphenyl)-7-(1,2,3,6-tetrahydropyridin-4-yl)-4H-pyrimido[1,2-a]pyrimidin-4-one]
- EC (1.5-fold increase) [1]: 0.1 to 0.3 µM
- maximum fold (Fold) increase of Smn protein [2]: ** (a fold increase between >1.2 and ≤1.35 is indicated by two stars (**))

From patent US11753407B2, “Compounds for treating spinal muscular atrophy” (PTC Therapeutics, Inc., priority 2012, dated 2023)
